# Measured values taken from article PMC11003479, “Inhibition of pathogenic bacterial carbonic anhydrases by monothiocarbamates” (Journal of Enzyme Inhibition and Medicinal Chemistry, 2023).
# What was measured:
# α-NgCA [1] = biological target: T1, α-NgCA (Neisseria gonorrhoeae, UniProt Q50940); assay: biochemical; set-up: stopped-flow CO2 hydration assay of recombinant carbonic anhydrases, pH 7.4 (alpha) or 8.3 (gamma), KI
# T1 construct: gene cah
# T1 sequence (Q50940 27-252): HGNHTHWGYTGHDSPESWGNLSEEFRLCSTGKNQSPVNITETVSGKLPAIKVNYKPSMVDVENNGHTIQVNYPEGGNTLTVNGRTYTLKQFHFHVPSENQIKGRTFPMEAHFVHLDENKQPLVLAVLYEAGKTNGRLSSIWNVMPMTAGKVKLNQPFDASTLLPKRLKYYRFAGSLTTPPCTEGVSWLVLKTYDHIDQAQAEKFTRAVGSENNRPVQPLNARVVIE
# Experimental: (§1) The experiments were performed at the pH of 7.4 for the α-class enzymes, and the pH of 8.3 for the γ-CA, as reported earlier[15]^,[16]. The bacterial enzymes were recombinant proteins obtained as reported earlier by our group[15]^,[16].
# α-EfCA [2] = biological target: T2, α-EfCA (Enterococcus faecium, UniProt Q3XYE8); assay: biochemical; set-up: stopped-flow CO2 hydration assay of recombinant carbonic anhydrases, pH 7.4 (alpha) or 8.3 (gamma), KI
# T2 construct: gene HMPREF0351_11360
# T2 sequence (Q3XYE8 1-234): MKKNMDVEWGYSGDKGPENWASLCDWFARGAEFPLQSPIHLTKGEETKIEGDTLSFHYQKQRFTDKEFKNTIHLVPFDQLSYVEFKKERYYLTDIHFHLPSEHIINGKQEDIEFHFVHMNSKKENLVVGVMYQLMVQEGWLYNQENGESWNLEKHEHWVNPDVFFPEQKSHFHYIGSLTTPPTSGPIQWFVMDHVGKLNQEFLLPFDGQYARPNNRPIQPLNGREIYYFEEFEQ
# Experimental: as §1
# α-EfCA [3] = biological target: T2, α-EfCA; assay: stopped-flow CO2 hydrase assay; type: biochemical
# γ-EfCA = assay: stopped-flow CO2 hydrase assay; type: biochemical, Enterococcus faecium; conditions: CO2 hydration, pH 8.3
# α-NgCA [4] = biological target: T1, α-NgCA; assay: stopped-flow CO2 hydrase assay; type: biochemical
SMILES,Ki (α-NgCA [1]) [µM],Ki (α-EfCA [2]) [µM],Ki (α-EfCA [3]) [µM],Ki (γ-EfCA) [µM],Ki (α-NgCA [4]) [µM]
O=C(S)N1CCOCC1 [compound 1],0.761,0.74,–,–,–
CC(C)CN(CC(C)C)C(=O)S [compound 2],0.89,0.665,–,–,–
CCCCN(CCCC)C(=O)S [compound 3],0.825,0.517,–,–,–
CCCN(CCC)C(=O)S [compound 4],0.799,0.55,–,–,–
"O=C(CN1CCN(C(=O)S)CC1)NC1CCCCC1 [compound 5, MTC 5]",–,–,0.29,0.417,0.395
CN1CCN(C(=O)S)CC1 [compound 6],0.729,0.959,–,–,–
"CCOC(=O)CN(C)C(=O)S [compound 7, MTC 7]",–,–,–,0.279,–
CCOC(=O)CN(C)C(=O)S [compound 7],0.919,0.788,–,–,–
CN(Cc1ccccc1)C(=O)S [compound 8],0.843,0.686,–,–,–
"O=C(S)NCCc1ccccc1 [compound 9, MTC 9]",–,–,0.428,–,–
O=C(S)NCCc1ccccc1 [compound 9],0.648,–,–,–,–
CCCCN(CC)C(=O)S [compound 10],0.766,0.806,–,–,–
O=C(S)N1CCN(C(=O)S)CC1 [compound 11],0.63,0.915,–,–,–
"COc1ccc(CCNC(=O)S)cc1OC [compound 12, MTC 12]",–,–,0.357,0.358,0.512
"O=C(S)N1CCN(c2ccc(C(F)(F)F)cc2)CC1 [compound 13, MTC 13]",–,–,0.477,0.334,0.394
"O=C(S)N1CCN(c2ccc(F)cc2)CC1 [compound 14, MTC 14]",–,–,0.195,0.149,0.417
"O=C(S)N1CCN(c2cccc(Cl)c2)CC1 [compound 15, MTC 15]",–,–,0.3,0.214,0.367
